Residues, ends and D or L forms follow the SMILES beside them. *: point of attachment. Palmitoyl = CCCCCCCCCCCCCCCC(=O)*; NHHex = CCCCCCN*
Key:
[1] = tested on: Nuclear Factor Kappa B subunit 1 (NFKB1); experiment: Innate immune response gene expression in HEKa, real time PCR array; type: cell-based, human; settings: 50 μg/ml, 24 h
Protocol: HEKa cells (Life Technologies) are seeded at 6.0×10^5 cells/well in 6-well plates and incubated in culture medium Epillfe™ with defined Growth Supplement (EDGS, Life Technologies), at 37° C. in a water-saturated atmosphere of 95% air and 5% CO2. After 24 hours of incubation under these conditions, medium is removed and cells are incubated with 50 μg/ml (w/v) of a peptide of the invention (see Table 16) in fresh culture medium keeping two wells where HEKa cells are incubated with medium only (basal conditions) at 37° C. and 5% CO2.
After 24 h of incubation, the cells are lysed directly in the wells following the protocol described on the RNeasy™ Mini kit (Qiagen) according to the manufacturer's protocol. The lysed cells are homogenized and the RNases are inactivated. The genomic DNA is removed from the samples by using gDNA Eliminator spin columns (Qiagen). Then the samples are passed through special RNA binding columns (Qiagen) and, after several microcentrifugation washes to eliminate contaminants and impurities, the purified RNA is eluted with 50 μl of ultrapure water. Quantification and analysis of purity of RNA samples are performed after RNA elution with a biophotometer (Eppendorf). 1 μg of high-quality RNA is retrotranscribed with iScript™ advanced (BioRad) in a final volume of 20 μl·Complete reaction mix is incubated in a thermal cycler (Eppendorf) at 42° C. for 30 minutes, and the reactions are stopped at 85° C. for 5 minutes. Complementary DNA is amplified by qPCR in a real-time PCR thermocycler (BioRad) using SYBR®Green supermix (BioRad) and a customized plate for use with SYBR®Green (BioRad). SYBR®Green binds to double-stranded DNA molecules and emits fluorescence which is quantified and is proportional to the amount of the product in the PCR reaction. Cycling conditions in BioRad CFX96™ instrument are 95° C. for 3 minutes, followed by 40 cycles of denaturing at 95° C. for 5 seconds, annealing and elongation at 60° C. for 30 seconds. GAPDH (Glyceraldehyde 3-phosphate dehydrogenase), TBP (TATA box binding protein) and HRPT1 (hypoxanthine phosphoribosyltransferase 1) are used as endogenous controls. Fold change relative to the expression of the sample genes and reference genes is calculated using normalized expression (ΔΔ(Ct)) method with default threshold values using CFX Manager Software (BioRad).
Genes analyzed are Chemokine (C-C motif) Ligand 5 (CCL5), Myeloid Differentiation primary response gene 88 (MyD88), Nuclear Factor Kappa B subunit 1 (NFKB1) and interferon Regulatory Factor 3 (IRF3).

[2] = tested on: Staphylococcus epidermidis; experiment: Adherence of Staphylococcus epidermidis in keratinocytes (HaCaT) in competition with S. aureus bioparticles; type: cell-based; settings: 50 μg/ml, 24 h, basal = 0
Protocol: After that treatment, cells are washed with phosphate-buffered saline (PBS, Sigma) and are then incubated with a solution of Staphylococcus epidermidis (ATCC®12228™, Culture Collections) treated with green-fluorescence calcein AM (Life technologic) and Alexa Fluor 594™ Bioparticles Staphylococcus aureus (ThermoFisher) in PBS for 30 minutes at 37° C. and protected from light. At the end of the incubation period, cells are washed with PBS and fixed in 4% (v/v) paraformaldehyde (PFA, Sigma) for 30 minutes. After rinsing with PBS, the nuclei are stained with Hoechst 33342, trihydrochloride trihydrate (ThermoFisher) in PBS for 10 minutes before analysis.
Cellular imaging is performed by fluorescence microscopy using the Operetta® High Content Imaging System (PerkinElmer). From each fluorescence image, Staphylococcus epidermidis is quantified as a number of spots and normalized against the number of keratinocyte nuclei and the total bacteria number (understood as the addition of detected S. epidermidis spots and S. aureus bioparticles). Each value obtained is normalized respect to basal conditions (non-treated keratinocytes). An image is taken in three different fields per well. 12 representative images from each condition are analyzed with Harmony software (PerkinElmer).
The normalized percentage of Staphylococcus epidermidis respect to basal conditions in treated keratinocytes is represented in Table 17.

Row | Compound | NFKB1 fold induction respect to basal conditions [1] | S. epidermidis (%), normalized percentage respect to basal conditions [2] [%]
1 | CCCCCCNC(=O)[C@H](CC(=O)O)NC(=O)[C@H](C)NC(=O)[C@H](CCCNC(=N)N)NC(=O)[C@H](CCCNC(=N)N)NC(=O)[C@H](CCC(N)=O)NC(=O)[C@H](CCSC)NC(=O)[C@H](CCC(=O)O)NC(=O)[C@@H](N)CCC(=O)O [PEP-36, H-Glu-Glu-Met-Gln-Arg-Arg-Ala-Asp-NHC6H13] (H-EEMQRRAD-NHHex) | 2.53 | 29.93
2 | Ac-EEMQRRKD-NH2 [PEP-24, Ac-Glu-Glu-Met-Gln-Arg-Arg-Lys-Asp-NH2] | 2.46 | 10.41
3 | CCCCCCCCCCCCCCCC(=O)N[C@@H](CCC(=O)O)C(=O)N[C@@H](CCC(=O)O)C(=O)N[C@@H](CCSC)C(=O)N[C@@H](CCC(N)=O)C(=O)N[C@@H](CCCNC(=N)N)C(=O)N[C@@H](CCCNC(=N)N)C(=O)N[C@@H](C)C(=O)N[C@@H](CC(N)=O)C(N)=O [PEP-28, Palm-Glu-Glu-Met-Gln-Arg-Arg-Ala-Asn-NH2] (Palmitoyl-EEMQRRAN-NH2) | 2.65 | 39.68
4 | CCCCCCNC(=O)[C@H](CC(=O)O)NC(=O)[C@H](C)NC(=O)[C@H](CCCNC(=N)N)NC(=O)[C@H](CCCNC(=N)N)NC(=O)[C@H](CCC(N)=O)NC(=O)[C@H](CCSC)NC(=O)[C@H](CCC(=O)O)NC(=O)[C@H](CCC(=O)O)NC(C)=O [PEP-34, Ac-Glu-Glu-Met-Gln-Arg-Arg-Ala-Asp-NHC6H13] (Ac-EEMQRRAD-NHHex) | 2.59 | 61.59
5 | Ac-EEMQRRAD-OH [PEP-4, Ac-Glu-Glu-Met-Gln-Arg-Arg-Ala-Asp-OH] | 2.55 | 25.36
6 | Ac-EEMQRHAD-NH2 [PEP-20, Ac-Glu-Glu-Met-Gln-Arg-His-Ala-Asp-NH2] | 2.71 | 16.66
7 | Ac-NEMQRRA-NH2 [PEP-43, Ac-Asn-Glu-Met-Gln-Arg-Arg-Ala-NH2] | 2.56 | 30.17
8 | Ac-EEIERR-NH2 [PEP-55, Ac-Glu-Glu-Ile-Glu-Arg-Arg-NH2] | 3.39 | 2.41
9 | Ac-EEMQRK-OH [PEP-62, Ac-Glu-Glu-Met-Gln-Arg-Lys-OH] | 1.40 | 6.78
10 | Ac-EEMERRAD-NH2 [PEP-11, Ac-Glu-Glu-Met-Glu-Arg-Arg-Ala-Asp-NH2] | 2.63 | 4.24
11 | Ac-EEMQRRAQ-NH2 [PEP-19, Ac-Glu-Glu-Met-Gln-Arg-Arg-Ala-Gln-NH2] | 2.73 | 81.69
12 | Ac-EEMERRA-NH2 [PEP-39, Ac-Glu-Glu-Met-Glu-Arg-Arg-Ala-NH2] | 2.62 | 71.97
13 | Ac-DEMERRA-NH2 [PEP-40, Ac-Asp-Glu-Met-Glu-Arg-Arg-Ala-NH2] | 2.55 | 20.56
14 | H-EEMQRR-NH2 [PEP-56, H-Glu-Glu-Met-Gln-Arg-Arg-NH2] | 1.90 | 15.75
15 | Ac-DEMQRRAD-NH2 [PEP-8, Ac-Asp-Glu-Met-Gln-Arg-Arg-Ala-Asp-NH2] | 2.04 | 20.45
16 | Ac-DEMQRR-NH2 [PEP-51, Ac-Asp-Glu-Met-Gln-Arg-Arg-NH2] | 2.41 | 65.15
17 | Ac-EEMQRRGD-NH2 [PEP-16, Ac-Glu-Glu-Met-Gln-Arg-Arg-Gly-Asp-NH2] | 2.47 | 51.11

Source: US20200002377A1, “COMPOUNDS USEFUL FOR THE TREATMENT AND/OR CARE OF THE SKIN, HAIR, NAILS AND/OR MUCOUS MEMBRANES” (LUBRIZOL ADVANCED MATERIALS, INC., priority 2016, published 2020)
